Experimental data from patent publication US20220175761A1, “BI-LIGAND DRUG CONJUGATE AND USE THEREOF” (COHERENT BIOPHARMA (SUZHOU), LIMITED, priority 2019, published 2022).
Square brackets hold non-standard residues; d marks the D form. Peptide text beside a SMILES is read from it. * marks the point of attachment. Dolaproine = CO[C@@H]([C@@H]1CCCN1)[C@@H](C)C(=O)O; Dil = CC[C@H](C)[C@H](NC)[C@@H](CC(=O)O)OC; X1 = C[C@@H](N*)[C@@H](O)c1ccccc1; NMeV = CN[C@H](C(=O)O)C(C)C

Experiments:
LNCaP = experiment: Pharmacodynamic study 2 in CDX model; format: in vivo, BALB/c-nude mice; conditions: 3 mg/kg D1, 8, 15, tail vein
Protocol: Experiment purpose: to perform a pharmacodynamic study of conjugate compound CB-20BK in a subcutaneous xenograft model (CDX) of humanized LNCaP, DU145 and NCI-H460 cell lines
The cells or tumor tissue mass were prepared and subcutaneously inoculated into the anterior right flank of BALB/c-nude mice. When the tumor volume expanded to 80-160 mm^3, a randomized grouping was performed, and a model control group and administration groups were set. The mice were administrated from the first day of grouping, wherein the administration dose was adjusted according to the latest weight measurement. The mice were administrated via tail vein injection at an administration volume of 10 μl/g. After grouping and administration, the effects of tumor growth and treatment on normal behaviors of animals, specifically including the activity of experimental animals, food intake and drinking status, weight gain or loss status, and other abnormal conditions in eyes, hair, etc., were monitored. After grouping and administration, the weight of mice was measured twice a week to calculate the rate of weight change; at the same time, the long diameter and short diameter of the tumor were measured with a vernier caliper, and the tumor volume, relative tumor proliferation rate, tumor volume inhibition rate and other indicators were calculated. […]

BR1283 = experiment: Tumor growth inhibition in HuPrime xenograft breast cancer PDX model; format: in vivo, BALB/c-nude mice; conditions: 3 mg/kg, tail vein
Protocol: (§1) Experimental scheme: The tumor tissue mass were prepared and subcutaneously inoculated into the anterior right flank of BALB/c-nude mice. When the tumor volume expanded to 80-160 mm^3, a randomized grouping was performed, and a model control group and administration groups were set. The mice were administrated from the first day of grouping, wherein the administration dose was adjusted according to the latest weight measurement. The mice were administrated via tail vein injection at an administration volume of 10 μl/g and an administration dosage of 3 mg/kg. After grouping and administration, the effects of tumor growth and treatment on normal behaviors of animals, specifically including the activity of experimental animals, food intake and drinking status, weight gain or loss status, and other abnormal conditions in eyes, hair, etc., were monitored. After grouping and administration, the weight of mice was measured twice a week to calculate the rate of weight change; at the same time, the long diameter and short diameter of the tumor were measured with a vernier caliper, and the tumor volume, relative tumor proliferation rate, tumor volume inhibition rate and other indicators were calculated. The formula of tumor volume is TV=0.5 a×b^2, wherein a is the long diameter of a tumor and b is the short diameter of a tumor.

BR0438 = experiment: as above; format: in vivo, BALB/c-nude mice; conditions: 3 mg/kg, tail vein
Protocol: as §1

FOLR1 = biological target: T1, FOLR1 (Homo sapiens, UniProt P15328); experiment: BIAcore T200 binding affinity to FOLR1 (CM5 chip conjugated with FOLR1)
T1 construct: purchased R&D System 5646-FR
Text: Buffer: HBS-EP+ buffer 10× (GE, Cat #: BR100669), diluted 10 folds with deionized water before use.
In the experiment, CM5 chip was conjugated with ligand FOLR1 (R&D System, Cat #: 5646-FR).

FOLH1 = FOLH1 (Homo sapiens, UniProt Q04609); experiment: Gator binding affinity to FOLH1 (SA probe with Biotin-CB-20BK, analyte FOLH1); set-up: purchased Sino Biologicals 15877-H07H
Protocol: SA probe (Probe Life, Cat #: 1906018)
Buffer: Q buffer (Probe Life), 10 mM, pH=7.4
(2) The experiment was carried out according to Gator™ (Probe Life) instruction manual to determine the binding affinity of Biotin-CB-20BK to FOLH1. In the experiment, SA probe binds to ligand Biotin-CB-20BK, and the analyte is FOLH1 (Sino Biologicals, Cat #: 15877-H07H).

[1] = tested on: SK-BR-3 (human breast cancer cells); experiment: Inhibition of cell line proliferation, CCK8; format: cell-based; conditions: SK-BR-3, 68-72 hours, CCK8
Protocol: Experimental operations: LNCaP, SK-BR-3, NCI-H226, CFPAC-1 and PANC-1 cells were prepared in advance and counted; with a culture medium (IMDM+10% FBS+1× L-Glutamine+1×P/S), the cells LNCaP, SK-BR-3 and CFPAC-1 were diluted to 4×10^4 cells/ml, NCI-H226 was diluted to 2.0×10^4 cells/ml and PANC-1 was diluted to 3.0×10^4 cells/ml; the diluted cell solution was plated in 96-well plates at 100 μl/well; and negative control and blank control wells were set on each plate. After adherent cell culture overnight, the diluted samples to be tested were added at 50 μl/well. The plates were placed in an incubator at 37° C., 5% CO2 and cultured for 68-72 hours. To each well, 15 μl (10% of the liquid volume in a well) of a color developing solution from CCK8 was added; and the plates were incubated at 37° C. for 45-70 minutes and each plate was read at 450 nm on a microplate reader. The data was edited using SoftMax Pro and a 4-P fitting curve was plotted.
Experimental Operations: LNCaP, SK-BR-3, MDA-MB-468 and CFPAC-1 cells were prepared in advance and counted; with a culture medium (IMDM+10% FBS+1× L-Glutamine+1×P/S), the cells LNCaP, SK-BR-3, MDA-MB-468 and CFPAC-1 were diluted to 4×10^4 cells/ml; the diluted cell solution was plated in 96-well plates at 100 µl/well; and negative control and blank control wells were set on each plate. After adherent cell culture overnight, the diluted samples to be tested were added at 50 μl/well. The plates were placed in an incubator at 37° C., 5% CO2 and cultured for 68-72 hours. To each well, 15 μl (10% of the liquid volume in a well) of a color developing solution from CCK8 was added; and the plates were incubated at 37° C. for 45-70 minutes and each plate was read at 450 nm on a microplate reader. The data was edited using SoftMax Pro and a 4-P fitting curve was plotted.

[2] = tested on: lung cancer PDX model LU1206; experiment: Effectiveness in lung cancer LU1206 model (PDX model); format: in vivo, BALB/c nude mice
Protocol: BALB/c nude mice bore tumors subcutaneously and, when the tumor volume reached about 150 mm^3, were grouped into: low-dose, medium-dose and high-dose test sample groups, a small molecule MMAE control group, a targeting polypeptide 20BK-SM09 control group, and a blank control group (a total of 6 groups, and 8 mice per group); the mice were administered on day 1, day 8 and day 15 after the grouping; and the observation was continued for 14 days after the last administration.

[3] = tested on: lung cancer PDX model LU2505; experiment: Effectiveness in lung cancer LU2505 model (PDX model); format: in vivo, BALB/c nude mice
Text: (§2) The active substance of test sample CBP-1018 is CB-20BK, which is obtained by mixing CB-20BK with auxiliary materials and then lyophilizing same.

[4] = Body weight and clinical observation in the LU2505 study; format: in vivo, BALB/c nude mice; conditions: 0.375 mg/kg on day 1, 8, 15, D22
Text: as §2

[5] = FOLR1 on CM5 chip, N/D = no specific binding was detected
[6] = 0.375 mg/kg on day 1, 8, 15, euthanized on day 29
[7] = 0.375 mg/kg on day 1, 8, 15, D22

T1 sequence (P15328 25-233 limits assumed): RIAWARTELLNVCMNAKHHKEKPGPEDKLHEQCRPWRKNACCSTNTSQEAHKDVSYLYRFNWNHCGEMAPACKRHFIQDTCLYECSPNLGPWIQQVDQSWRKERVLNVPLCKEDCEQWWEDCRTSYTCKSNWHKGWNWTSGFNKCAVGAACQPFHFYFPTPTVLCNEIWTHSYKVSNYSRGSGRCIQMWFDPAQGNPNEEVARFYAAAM
FOLH1, sequence (Q04609 44-750 limits assumed): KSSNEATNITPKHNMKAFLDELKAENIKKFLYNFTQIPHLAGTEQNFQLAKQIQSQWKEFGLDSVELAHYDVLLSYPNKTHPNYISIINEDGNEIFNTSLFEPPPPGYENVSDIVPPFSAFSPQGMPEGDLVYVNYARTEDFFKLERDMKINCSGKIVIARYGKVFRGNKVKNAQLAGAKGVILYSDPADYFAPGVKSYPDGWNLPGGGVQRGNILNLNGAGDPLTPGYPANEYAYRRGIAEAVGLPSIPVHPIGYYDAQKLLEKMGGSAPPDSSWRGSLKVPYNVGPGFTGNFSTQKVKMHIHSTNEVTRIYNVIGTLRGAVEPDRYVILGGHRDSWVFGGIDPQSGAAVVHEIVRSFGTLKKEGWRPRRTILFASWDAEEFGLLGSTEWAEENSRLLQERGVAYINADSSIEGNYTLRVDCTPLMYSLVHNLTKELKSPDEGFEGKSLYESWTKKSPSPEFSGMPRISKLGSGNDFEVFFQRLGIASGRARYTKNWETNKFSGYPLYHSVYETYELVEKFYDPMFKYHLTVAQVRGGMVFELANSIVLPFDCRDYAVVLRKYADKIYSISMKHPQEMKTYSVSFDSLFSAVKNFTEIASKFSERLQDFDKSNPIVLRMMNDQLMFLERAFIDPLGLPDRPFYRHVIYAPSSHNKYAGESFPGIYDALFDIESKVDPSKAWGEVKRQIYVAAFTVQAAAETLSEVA

| SMILES | Tumor growth inhibition rate (TGI) (LNCaP) | TGI (BR1283) | TGI (BR0438) | specific binding to FOLR1 (in words) (FOLR1; BIAcore T200) | Kd (FOLR1; [5]) | kd (FOLR1; [5]) | kon (FOLR1; FOLR1 on CM5 chip, N/D = no specific binding was detected, read-out: ka) | binding to FOLH1 (in words) (FOLH1) | IC50 [1] | tumor growth inhibition effect (in words) ([2]; 0.375 mg/kg) | Tumor volume ([2]; 0.375 mg/kg on day 1, 8, 15) | Tumor volume Tumor growth inhibition rate ([2]; 0.375 mg/kg on day 1, 8, 15) | Tumor weight [2, 6] | Tumor weight Inhibition ratio [2, 6] | tumor growth inhibition effect (in words) ([3]; 0.375 mg/kg) | Tumor growth inhibition rate TGI % [3, 7] | Tumor volume [3, 7] | Tumor weight ([3]; 0.375 mg/kg on day 1, 8, 15, D29) | Weight [4] |
| --- | --- | --- | --- | --- | --- | --- | --- | --- | --- | --- | --- | --- | --- | --- | --- | --- | --- | --- | --- |
| CC[C@H](C)[C@@H]([C@@H](CC(=O)N1CCC[C@H]1[C@H](OC)[C@@H](C)C(=O)N[C@H](C)[C@@H](O)c1ccccc1)OC)N(C)C(=O)[C@@H](NC(=O)[C@H](C(C)C)N(C)C(=O)OCc1ccc(NC(=O)C(CCCNC(N)=O)NC(=O)[C@@H](NC(=O)CCCCCN2C(=O)CC(SC[C@H](NC(=O)[C@H](CCCCN)NC(=O)[C@H](CC(=O)O)NC(=O)[C@H](CC(=O)O)NC(=O)Cc3ccc(CNC(=O)NCCCC[C@H](NC(=O)N[C@@H](CCC(=O)O)C(=O)O)C(=O)O)cc3)C(=O)N[C@@H](CCCCNC(=O)CC[C@H](NC(=O)c3ccc(NCc4cnc5[nH]c(N)nc(=O)c5n4)cc3)C(=O)O)C(N)=O)C2=O)C(C)C)cc1)C(C)C (stereo partly shown) [CB-20BK] | 95.68% | 96.49% | 70.74% | specifically binds to FOLR1 with a good affinity | 0.127 nM | 0.000131 s⁻¹ | 1.03e+06 M⁻¹ s⁻¹ | binds to FOLH1 with a good affinity | – | – | – | – | – | – | – | – | – | – | – |
| CC[C@H](C)[C@@H]([C@@H](CC(=O)N1CCC[C@H]1[C@H](OC)[C@@H](C)C(=O)N[C@H](C)[C@@H](O)c1ccccc1)OC)N(C)C(=O)[C@@H](NC(=O)[C@@H](NC)C(C)C)C(C)C [MMAE, monomethyl auristatin E] (H-[NMeV]V[Dil][Dolaproine]-X1) | – | – | – | – | – | – | – | – | 2 nM | clear tumor growth inhibition effect | 778.32 mm^3 | 36.03% | 437.73 mg | 54.53% | clear tumor growth inhibition effect | 48.97% | 1132.61 mm^3 | 1597.1 (D29) mg | 23.5 g |
